Laboratory results taken from patent US20110288082A1, “METHODS AND COMPOSITIONS FOR INHIBITION OF THE TRANSITIONAL ENDOPLASMIC RETICULUM ATPASE” (priority 2010, published 2011).
Like-named read-outs stand apart in the source and are kept apart here.

What was measured:
[1] = tested on: p97-dependent Ub^G76V-GFP degradation in HeLa cells; assay: Ub^G76V-GFP degradation (turn-over) assay; assay type: cell-based, human; conditions: Homo sapiens, HeLa
Method: Ub^G76V-GFP Degradation Assay
Two GFP images with 100 ms exposure time per well were acquired and the average GFP intensity per area of a HeLa cell was determined by using MetaXpress software. Mean GFP intensity of 300-500 cells was calculated using Excel. Normalized GFP intensity was calculated using the following formula: (Test compound−Background)/(Basal GFP intensity—Background). Where: Test compound is defined as Mean GFP intensity of Ub^G76V-GFP-expressing cells treated with the test compound. Background is defined as background GFP intensity of HeLa cells. Basal GFP intensity is defined as mean GFP intensity of Ub^G76V-GFP-expressing cells treated with DMSO. […] The percent of remaining k for each compound is calculated using the following formula: (Test compound/DMSO control)*100. Where: Test_compound is defined as k determined from wells containing test compound, DMSO control is defined as k determined from wells containing DMSO.

p97 = p97 (Homo sapiens, UniProt P55072); assay: p97 ATPase assay (Kinase Glo Plus; biomol green for compounds that interfere with luciferase); assay type: biochemical
Method: Assay Buffer (20 μL of 2.5× concentration, where 1×=50 mM Tris pH 7.4, 20 mM MgCl2, 1 mM EDTA, 0.5 mM TCEP) was dispensed into each well of a 96 well plate. Purified p97 (25 μL of 50 μM) was diluted in 975 μL, of 1× Assay Buffer and 10 μL was dispensed in each well. Test compound (10 μL) or 5% DMSO (10 μL) was then added to each well and the plate was incubated at room temperature for 10 min. The ATPase assay was carried out by adding to each well 10 μL of 500 μM ATP (pH 7.5), incubating at room temperature for 60 min, and then adding 50 μL Kinase Glo Plus reagent (Promega) followed by a final 10 min incubation at room temperature in the dark. Luminescence was read on an Analyst AD (Molecular Devices). Compounds were assayed at a range of concentrations (0, 0.048, 0.24, 1.2, 6, 30 μM) in triplicate. The percent of remaining activity for each reaction was calculated using the following mathematical expression: ((Test Compound-High Control)/(Low Control-High Control))*100. Test_Compound is defined as wells containing test compound, Low_Control is defined as wells containing DMSO, High_Control is defined as wells containing no p97 protein. […] The result was expressed as mean +/− standard error. For assays with Myriad 12 and 19, 100 μL of biomol green reagent (Enzo Life Sciences) was added to each well instead of kinase Glo Plus (Promega) and absorbance at 630 nm was measured. This was done because these compounds interfered with luciferase activity. […]

[2] = read-out: IC50 (μM) Ub^G76V-GFP turn over, Ub^G76V-GFP-expressing HeLa cells, degradation rate constant k from 90 to 180 min, mean +/- standard error
[3] = purified p97, ATP, 60 min room temperature, mean +/- standard error
[4] = read-out: IC50 (μM) Ub^G76V-GFP turn over, p97-dependent Ub^G76V-GFP degradation turn-over assay

Sequence of p97 (P55072 2-806 limits assumed): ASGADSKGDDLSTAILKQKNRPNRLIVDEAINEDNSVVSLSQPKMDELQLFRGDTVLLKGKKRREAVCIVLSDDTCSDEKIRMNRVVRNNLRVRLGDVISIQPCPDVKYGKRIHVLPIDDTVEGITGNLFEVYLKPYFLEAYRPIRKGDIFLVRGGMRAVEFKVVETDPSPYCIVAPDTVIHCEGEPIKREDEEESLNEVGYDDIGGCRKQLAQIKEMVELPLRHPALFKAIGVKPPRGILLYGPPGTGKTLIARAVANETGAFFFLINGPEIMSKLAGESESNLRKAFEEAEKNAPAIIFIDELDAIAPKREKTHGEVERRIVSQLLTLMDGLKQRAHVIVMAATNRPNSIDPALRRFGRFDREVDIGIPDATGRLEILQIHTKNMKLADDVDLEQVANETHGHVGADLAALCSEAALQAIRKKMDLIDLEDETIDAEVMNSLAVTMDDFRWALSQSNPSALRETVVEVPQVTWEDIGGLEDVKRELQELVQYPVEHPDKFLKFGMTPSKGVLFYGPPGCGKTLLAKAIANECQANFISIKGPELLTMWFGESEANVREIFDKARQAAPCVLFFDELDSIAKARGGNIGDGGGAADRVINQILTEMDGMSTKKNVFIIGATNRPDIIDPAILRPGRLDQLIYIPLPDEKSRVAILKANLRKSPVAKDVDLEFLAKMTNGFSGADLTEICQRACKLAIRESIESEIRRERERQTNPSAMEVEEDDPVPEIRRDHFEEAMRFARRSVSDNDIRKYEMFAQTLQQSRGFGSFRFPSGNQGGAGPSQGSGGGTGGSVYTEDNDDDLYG

Row | SMILES | IC50 [1, 2] [µM] | IC50 (p97; [3]) [µM] | IC50 [1, 4] [µM] | IC50 (p97; p97 ATPase assay) [µM]
1 | COc1ccccc1Nc1nc(NCc2ccccc2)c2ccccc2n1 [II-11] | 11 ± 3 | 2.2 ± 0.9 | – | –
2 | Cc1cccc(Nc2nc(NCc3ccccc3)c3ccccc3n2)c1 [II-12] | 3 ± 0.7 | 1.7 ± 0.5 | – | –
3 | Brc1cccc(Nc2nc(NCc3ccccc3)c3ccccc3n2)c1 [II-15] | 4.3 ± 0.8 | 2.5 ± 0.5 | – | –
4 | COc1cccc(Nc2nc(NCc3ccccc3)c3ccccc3n2)c1 [II-16] | 4.3 ± 0.7 | 2.5 ± 0.2 | – | –
5 | Clc1ccc(Nc2nc(NCc3ccccc3)c3ccccc3n2)cc1Cl [II-17] | 12 ± 2 | 8.1 ± 2.6 | – | –
6 | Fc1ccc(Cl)cc1Nc1nc(NCc2ccccc2)c2ccccc2n1 [II-18] | 13 ± 2 | 13 ± 3 | – | –
7 | Clc1cc(Cl)cc(Nc2nc(NCc3ccccc3)c3ccccc3n2)c1 [II-19] | 13 ± 1 | 8.2 ± 0.3 | – | –
8 | FC(F)(F)c1cccc(Nc2nc(NCc3ccccc3)c3ccccc3n2)c1 [II-20] | – | – | 21 ± 1 | 50 ± 16
9 | Ic1cccc(Nc2nc(NCc3ccccc3)c3ccccc3n2)c1 [II-21] | 36 ± 4 | 5.2 ± 1.9 | – | –
10 | O=[N+]([O-])c1cccc(Nc2nc(NCc3ccccc3)c3ccccc3n2)c1 [II-22] | 19 ± 2 | 5.2 ± 0.5 | – | –
11 | Cc1ccc(CNc2nc(Nc3cccc(Cl)c3)nc3ccccc23)cc1 [III-1] | 12 ± 2 | 1.4 ± 0.3 | – | –
12 | Clc1ccc(CNc2nc(Nc3cccc(Cl)c3)nc3ccccc23)cc1 [III-2] | 7.6 ± 2.4 | 2.8 ± 0.9 | – | –
13 | Fc1ccc(CNc2nc(Nc3cccc(Cl)c3)nc3ccccc23)cc1 [III-3] | 5.7 ± 1.3 | 1.5 ± 0.3 | – | –
14 | Clc1cccc(Nc2nc(NCc3ccc(Br)cc3)c3ccccc3n2)c1 [III-4] | 10 ± 3 | 7.4 ± 2 | – | –
15 | COc1ccc(CNc2nc(Nc3cccc(Cl)c3)nc3ccccc23)cc1 [III-5] | 11 ± 4 | 2.3 ± 0.6 | – | –
16 | Cc1ccccc1CNc1nc(Nc2cccc(Cl)c2)nc2ccccc12 [III-6] | 11 ± 3 | 4.2 ± 1.1 | – | –
17 | Clc1cccc(Nc2nc(NCc3ccccc3Cl)c3ccccc3n2)c1 [III-7] | 18 ± 5 | 4.7 ± 1.4 | – | –
18 | Fc1ccccc1CNc1nc(Nc2cccc(Cl)c2)nc2ccccc12 [III-8] | 7.8 ± 2.1 | 1.8 ± 0.5 | – | –
19 | Clc1cccc(Nc2nc(NCc3ccccc3Br)c3ccccc3n2)c1 [III-9] | 12 ± 5 | 4 ± 1.7 | – | –
20 | COc1ccccc1CNc1nc(Nc2cccc(Cl)c2)nc2ccccc12 [III-10] | 11 ± 2 | 1.6 ± 0.4 | – | –
21 | Cc1cccc(CNc2nc(Nc3cccc(Cl)c3)nc3ccccc23)c1 [III-11] | 9.7 ± 2.7 | 2.3 ± 0.6 | – | –
22 | Clc1cccc(CNc2nc(Nc3cccc(Cl)c3)nc3ccccc23)c1 [III-12] | 15 ± 4 | 5 ± 1.2 | – | –

Row | SMILES | IC50 [1, 2] [µM] | IC50 (p97; [3]) [µM] | IC50 [1, 4] [µM] | IC50 (p97; p97 ATPase assay) [µM]
23 | Fc1cccc(CNc2nc(Nc3cccc(Cl)c3)nc3ccccc23)c1 [III-13] | 6.3 ± 1.7 | 1.2 ± 0.2 | – | –
24 | Clc1cccc(Nc2nc(NCc3cccc(Br)c3)c3ccccc3n2)c1 [III-14] | 9.9 ± 2 | 3.7 ± 0.9 | – | –
25 | COc1cccc(CNc2nc(Nc3cccc(Cl)c3)nc3ccccc23)c1 [III-15] | 9.9 ± 1.6 | 1 ± 0.1 | – | –
26 | Clc1ccc(CNc2nc(NCc3ccccc3)c3ccccc3n2)cc1 [IV-2] | 2.1 ± 0.4 | 3.1 ± 0.2 | – | –
27 | Fc1ccc(CNc2nc(NCc3ccccc3)c3ccccc3n2)cc1 [IV-3] | 3.4 ± 0.5 | 2.6 ± 0.2 | – | –
28 | Brc1ccc(CNc2nc(NCc3ccccc3)c3ccccc3n2)cc1 [IV-4] | 3.9 ± 0.3 | 4.3 ± 0.9 | – | –
29 | COc1ccc(CNc2nc(NCc3ccccc3)c3ccccc3n2)cc1 [IV-5] | 1.3 ± 0.2 | 3 ± 0.5 | – | –
30 | Cc1ccccc1CNc1nc(NCc2ccccc2)c2ccccc2n1 [IV-6] | 1.9 ± 0.4 | 2.7 ± 0.5 | – | –
31 | Clc1ccccc1CNc1nc(NCc2ccccc2)c2ccccc2n1 [IV-7] | 2.9 ± 0.9 | 5.3 ± 1.2 | – | –
32 | Fc1ccccc1CNc1nc(NCc2ccccc2)c2ccccc2n1 [IV-8] | 2.8 ± 0.4 | 2.9 ± 0.4 | – | –
33 | Brc1ccccc1CNc1nc(NCc2ccccc2)c2ccccc2n1 [IV-9] | 3.8 ± 0.7 | 2 ± 0.3 | – | –
34 | COc1ccccc1CNc1nc(NCc2ccccc2)c2ccccc2n1 [IV-10] | 1.9 ± 0.2 | 3.6 ± 0.8 | – | –
35 | Cc1cccc(CNc2nc(NCc3ccccc3)c3ccccc3n2)c1 [IV-11] | 2.5 ± 0.5 | 2.3 ± 0.4 | – | –
36 | Clc1cccc(CNc2nc(NCc3ccccc3)c3ccccc3n2)c1 [IV-12] | 2.5 ± 0.4 | 2.7 ± 0.1 | – | –
37 | Clc1ccc(CNc2nc(NCc3ccccc3)c3ccccc3n2)cc1Cl [IV-17] | 1.9 ± 0.2 | 3 ± 0.5 | – | –
38 | FC(F)(F)c1cc(CNc2nc(NCc3ccccc3)c3ccccc3n2)ccc1Cl [IV-18] | 2.2 ± 0.4 | 4.7 ± 1 | – | –
39 | c1ccc(CNc2nc(N3CCOc4ccccc43)nc3ccsc23)cc1 [IX] | 6.4 ± 1 | 0.4 ± 0.1 | – | –
40 | Brc1cccc2c(NCc3ccccc3)nc(NCc3ccccc3)nc12 [V1-9] | 30 ± 2 | 3.3 ± 0.9 | – | –
41 | COc1c(Cl)cccc1Nc1nc(NCc2ccccc2)c2ccccc2n1 [V-1] | 6.3 ± 1.7 | 0.9 ± 0.2 | – | –
42 | Cc1c(F)cccc1Nc1nc(NCc2ccccc2)c2ccccc2n1 [V-2] | 3.7 ± 0.8 | 0.9 ± 0.1 | – | –
43 | Cc1cc(F)cc(Nc2nc(NCc3ccccc3)c3ccccc3n2)c1 [V-3] | 5.4 ± 0.8 | 0.7 ± 0.05 | – | –
44 | COc1c(F)cccc1Nc1nc(NCc2ccccc2)c2ccccc2n1 [V-4] | 12 ± 3 | 1.7 ± 0.5 | – | –

Row | SMILES | IC50 [1, 2] [µM] | IC50 (p97; [3]) [µM] | IC50 [1, 4] [µM] | IC50 (p97; p97 ATPase assay) [µM]
45 | Cc1c(Cl)cccc1Nc1nc(NCc2ccccc2)c2ccccc2n1 [V-5] | 5.5 ± 1 | 0.7 ± 0.1 | – | –
46 | Cc1ccc(F)cc1Nc1nc(NCc2ccccc2)c2ccccc2n1 [V-6] | 5 ± 1 | 0.8 ± 0.1 | – | –
47 | Cc1ccc(Nc2nc(NCc3ccccc3)c3ccccc3n2)cc1F [V-7] | 5.2 ± 1.2 | 0.9 ± 0.2 | – | –
48 | COc1ccc(Nc2nc(NCc3ccccc3)c3ccccc3n2)cc1F [V-8] | 4.7 ± 0.8 | 0.9 ± 0.1 | – | –
49 | Cc1ccc(Cl)cc1Nc1nc(NCc2ccccc2)c2ccccc2n1 [V-9] | 7 ± 1.5 | 0.8 ± 0.07 | – | –
50 | COc1ccc(Cl)cc1Nc1nc(NCc2ccccc2)c2ccccc2n1 [V-10] | 16 ± 6 | 1.1 ± 0.2 | – | –
51 | COc1ccc(F)cc1Nc1nc(NCc2ccccc2)c2ccccc2n1 [V-11] | 9.3 ± 1 | 6.7 ± 3 | – | –
52 | Clc1cccc2nc(NCc3ccccc3)nc(NCc3ccccc3)c12 [VI-1] | 16 ± 2 | 2.2 ± 0.7 | – | –
53 | Fc1cccc2nc(NCc3ccccc3)nc(NCc3ccccc3)c12 [VI-2] | 13 ± 2 | 1.2 ± 0.3 | – | –
54 | Clc1ccc2nc(NCc3ccccc3)nc(NCc3ccccc3)c2c1 [VI-3] | 6.6 ± 0.9 | 1.6 ± 0.4 | – | –
55 | COc1cc2nc(NCc3ccccc3)nc(NCc3ccccc3)c2cc1OC [VI-4] | 8.8 ± 1.5 | 4.4 ± 1.8 | – | –
56 | COc1cccc2c(NCc3ccccc3)nc(NCc3ccccc3)nc12 [VI-5, N2,N4-dibenzyl-8-methoxyquinazoline-2,4-diamine] | 10 ± 2 | 0.6 ± 0.06 | – | –
57 | Cc1ccc2c(NCc3ccccc3)nc(NCc3ccccc3)nc2c1 [VI-6] | 6.1 ± 1.6 | 2.2 ± 0.4 | – | –
58 | FC(F)(F)c1ccc2c(NCc3ccccc3)nc(NCc3ccccc3)nc2c1 [VI-7] | 19 ± 1 | 9.1 ± 2 | – | –
59 | N#Cc1ccc2c(NCc3ccccc3)nc(NCc3ccccc3)nc2c1 [VI-8] | – | – | 21 ± 3 | 25 ± 10
60 | Fc1cccc2c(NCc3ccccc3)nc(NCc3ccccc3)nc12 [VI-10] | 18 ± 2 | 3.1 ± 0.5 | – | –
61 | Fc1ccc2c(NCc3ccccc3)nc(NCc3ccccc3)nc2c1 [VI-11] | 6.1 ± 0.8 | 2.6 ± 0.5 | – | –
62 | Clc1ccc2c(NCc3ccccc3)nc(NCc3ccccc3)nc2c1 [VI-12] | 6.3 ± 0.9 | 5.5 ± 0.9 | – | –
63 | COc1ccc2c(NCc3ccccc3)nc(NCc3ccccc3)nc2c1 [VI-13] | 42 ± 6 | 5.7 ± 1 | – | –
64 | COc1ccc2nc(NCc3ccccc3)nc(NCc3ccccc3)c2c1 [VI-14] | 8.6 ± 1.7 | 7.5 ± 1.1 | – | –
65 | Fc1ccc2nc(NCc3ccccc3)nc(NCc3ccccc3)c2c1 [VI-15] | 8.2 ± 1.5 | 4.7 ± 0.4 | – | –
